Numbers after ± are expanded uncertainties.

The conditions of data set [1]: for mass density: 298.15 K, 101.33 kPa, Liquid, Vibrating tube method.
A short description of data set [2]: Molar enthalpy of transition or fusion. The following applies: Crystal; DSC.

Take `CCCC[n+]1ccn(CC)c1.O=S(=O)([N-]S(=O)(=O)C(F)(F)F)C(F)(F)F`: the mass density in data set [1] turned out to be 1401.8 ± 14 kg/m3. Besides, in data set [1] (DTA), the Glass transition temperature is -92.2 ± 3 °C.
With `CCn1cc[n+](CC)c1.O=S(=O)([N-]S(=O)(=O)C(F)(F)F)C(F)(F)F` [1,3-diethylimidazolium bis[(trifluoromethyl)sulfonyl]imide], in data set [2], the “Molar enthalpy of transition or fusion” value worked out at 4.88 ± 0.191 kcal/mol. Moreover, in data set [1], the mass density is given as 1476 ± 15 kg/m3. In addition, the Normal melting temperature in data set [1] (Crystal, DTA) is -10.5 ± 0.4 °C. The Glass transition temperature in data set [1] (DTA) was -67.2 ± 3 °C.
Regarding `CCCC[n+]1ccn(CC)c1.F[P-](F)(F)(F)(F)F` [1-butyl-3-ethylimidazolium hexafluorophosphate], the mass density in data set [1] is reported as 1327.6 ± 12 kg/m3. Moreover, in data set [1] (DTA), the Glass transition temperature is -80.2 ± 3 °C.
As to `CCCCCCn1cc[n+](CC)c1.O=S(=O)([N-]S(=O)(=O)C(F)(F)F)C(F)(F)F` [1-hexyl-3-ethylimidazolium bis(trifluoromethylsulfonyl)imide], the mass density in data set [1] is 1345.4 ± 13 kg/m3. In addition, in data set [1] (DTA), the Glass transition temperature was -88.3 ± 3 °C.

Source of the values: the NIST ThermoML archive (doi:10.1021/je700693z).
